One assay deals with WDR5 (Homo sapiens, UniProt P61964). In words: TR-FRET competition binding assay, displacement of 10mer-Thr-FAM MLL peptide probe from His-tagged WDR5. The settings on record: WDR5-His tag (residues 24-334) 2 nM; 10mer-Thr-FAM 150 nM; 60 min, room temperature; read-out: Ki for Inhibition of WDR5 by TR-FRET assay.
In assay [1] the test system is MV4:11 human cancer cell lines. In words: Cellular viability / anti-proliferative assay, CellTiter-Glo, 5 day protocol. Type of assay: cell-based. The following applies: Homo sapiens, MV4-11, 120 h, MV4:11 cells; 5 day incubation; CellTiter-Glo; mean of at least two replicates; read-out: GI50 on cellular proliferation of MV4:11 human cancer cell lines. In short, it runs like this:
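MV-4-11 cells in IMDM with 10% FBS, 200 cells/well, exposed 5 days to 22 two-fold dilutions from 30 μM, final DMSO 0.3%. Viability read by CellTiter-Glo luminescence; GI50 from sigmoidal dose-response fit, mean of at least two replicates.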

A value given as a limit tells only on which side of the number the result lay.

For `CCc1cc(N2C[C@H]3CN(C)C[C@H]3C2)c2nc(C)cc(N3CCc4c(cc(Cn5ccnc5)cc4-c4cn(C)nc4C(F)(F)F)C3=O)c2c1` [Example 197, 7-((1H-Imidazol-1-yl)methyl)-2-(6-ethyl-2-methyl-8-((3aR,6aS)-5-methylhexahydropyrrolo[3,4-c]pyrrol-2(1H)-yl)quinolin-4-yl)-5-(1-methyl-3-(trifluoromethyl)-1H-pyrazol-4-yl)-3,4-dihydroisoquinolin-1(2H)-one], at WDR5, the inhibition constant Ki worked out at 0.02 nM. Also, in assay [1], the GI50 is < 20 nM.

On to `COc1cc(C(=O)Nc2ncco2)c2nc(C)cc(N3CCc4c(cc(Cn5ccnc5)cc4-c4cn(C)nc4C(F)(F)F)C3=O)c2c1` [Example 200, 4-(7-((1H-Imidazol-1-yl)methyl)-5-(1-methyl-3-(trifluoromethyl)-1H-pyrazol-4-yl)-1-oxo-3,4-dihydroisoquinolin-2(1H)-yl)-6-methoxy-2-methyl-N-(oxazol-2-yl)quinoline-8-carboxamide], for which the inhibition constant (Ki) at WDR5 is < 0.02 nM. For the same compound, the GI50 in assay [1] was 28 nM.

As for `COc1cc(-c2cn[nH]c2)c2nc(C)cc(N3CCc4c(cc(Cn5ccnc5)cc4-c4cn(C)nc4C(F)(F)F)C3=O)c2c1` [Example 201, 7-((1H-imidazol-1-yl)methyl)-2-(6-methoxy-2-methyl-8-(1H-pyrazol-4-yl)quinolin-4-yl)-5-(1-methyl-3-(trifluoromethyl)-1H-pyrazol-4-yl)-3,4-dihydroisoquinolin-1(2H)-one], the Ki on WDR5 amounted to 0.023 nM. The GI50 in assay [1] worked out at 23 nM.

Regarding `COc1cnc2cc(C)cc(N3CCc4c(cc(Cn5ccnc5)cc4-c4cn(C)nc4C(F)(F)F)C3=O)c2c1` [Example 202, 7-((1H-Imidazol-1-yl)methyl)-2-(3-methoxy-7-methylquinolin-5-yl)-5-(1-methyl-3-(trifluoromethyl)-1H-pyrazol-4-yl)-3,4-dihydroisoquinolin-1(2H)-one], the inhibition constant Ki at WDR5 was found to be 0.02 nM. For the same compound, in assay [1], the GI50 was < 20 nM.

Consider `Cc1cc(N2CCc3c(cc(Cn4ccnc4)cc3-c3cn(C)nc3C(F)(F)F)C2=O)c2cc(N3CC(F)C3)cc(C#N)c2n1` [Example 203, 4-(7-((1H-Imidazol-1-yl)methyl)-5-(1-methyl-3-(trifluoromethyl)-1H-pyrazol-4-yl)-1-oxo-3,4-dihydroisoquinolin-2(1H)-yl)-6-(3-fluoroazetidin-1-yl)-2-methylquinoline-8-carbonitrile], for which the Ki at WDR5 was 0.025 nM. Besides, the GI50 in assay [1] was found to be 49 nM.

Regarding `CCc1cc(C#N)c2nccc(N3CCc4c(cc(Cn5ccnc5)cc4-c4cn(C)nc4C(F)(F)F)C3=O)c2c1` [Example 204, 4-(7-((1H-Imidazol-1-yl)methyl)-5-(1-methyl-3-(trifluoromethyl)-1H-pyrazol-4-yl)-1-oxo-3,4-dihydroisoquinolin-2(1H)-yl)-6-ethylquinoline-8-carbonitrile], the Ki at WDR5 was < 0.02 nM. The GI50 in assay [1] came out at 22 nM.

For the compound `COc1cnc2c(C)ccc(N3CCc4c(cc(Cn5ccnc5)cc4-c4cn(C)nc4C(F)(F)F)C3=O)c2c1` [Example 206, 7-((1H-Imidazol-1-yl)methyl)-2-(3-methoxy-8-methylquinolin-5-yl)-5-(1-methyl-3-(trifluoromethyl)-1H-pyrazol-4-yl)-3,4-dihydroisoquinolin-1(2H)-one], the Ki on WDR5 turned out to be 0.022 nM. For the same compound, in assay [1], the GI50 was 43 nM.

Turning to `CCc1cc2c(N3CCc4c(cc(Cn5ccnc5)cc4-c4cn(C)nc4C(F)(F)F)C3=O)ccnc2c(OC)n1` [Example 207, 7-((1H-Imidazol-1-yl)methyl)-2-(6-ethyl-8-methoxy-1,7-naphthyridin-4-yl)-5-(1-methyl-3-(trifluoromethyl)-1H-pyrazol-4-yl)-3,4-dihydroisoquinolin-1(2H)-one], the Ki at WDR5 was < 0.02 nM. Besides, in assay [1], the GI50 was < 20 nM.

With `CCc1cc(N2CCn3cnnc3C2)c2nccc(N3CCc4c(cc(Cn5ccnc5)cc4-c4cn(C)nc4C(F)(F)F)C3=O)c2c1` [Example 208, 7-((1H-Imidazol-1-yl)methyl)-2-(8-(5,6-dihydro-[1,2,4]triazolo[4,3-a]pyrazin-7(8H)-yl)-6-ethylquinolin-4-yl)-5-(1-methyl-3-(trifluoromethyl)-1H-pyrazol-4-yl)-3,4-dihydroisoquinolin-1(2H)-one], on WDR5, the inhibition constant Ki was < 0.02 nM. For the same compound, the GI50 in assay [1] worked out at 55 nM.

`CCc1cc(C(=O)NCCNC(=O)c2cnccn2)c2nccc(N3CCc4c(cc(Cn5ccnc5)cc4-c4cn(C)nc4C(F)(F)F)C3=O)c2c1` [Example 209, 4-(7-((1H-Imidazol-1-yl)methyl)-5-(1-methyl-3-(trifluoromethyl)-1H-pyrazol-4-yl)-1-oxo-3,4-dihydroisoquinolin-2(1H)-yl)-6-ethyl-N-(2-(pyrazine-2-carboxamido)ethyl)quinoline-8-carboxamide]: the inhibitory constant (Ki) at WDR5 was < 0.02 nM. In addition, the GI50 in assay [1] was < 20 nM.

In the case of `CCc1cnc2cncc(N3CCc4c(cc(Cn5ccnc5)cc4-c4cn(C)nc4C(F)(F)F)C3=O)c2c1` [Example 211, 7-((1H-imidazol-1-yl)methyl)-2-(3-ethyl-1,7-naphthyridin-5-yl)-5-(1-methyl-3-(trifluoromethyl)-1H-pyrazol-4-yl)-3,4-dihydroisoquinolin-1(2H)-one], on WDR5, the Ki is < 0.02 nM. In assay [1], the GI50 came out at 20 nM.

`CCc1cc(C(=O)NCCNC(C)=O)c2nccc(N3CCc4c(cc(Cn5ccnc5)cc4-c4cn(C)nc4C(F)(F)F)C3=O)c2c1` [Example 212, 4-(7-((1H-Imidazol-1-yl)methyl)-5-(1-methyl-3-(trifluoromethyl)-1H-pyrazol-4-yl)-1-oxo-3,4-dihydroisoquinolin-2(1H)-yl)-N-(2-acetamidoethyl)-6-ethylquinoline-8-carboxamide]: on WDR5, the inhibition constant Ki is < 0.02 nM. In addition, the GI50 in assay [1] stood at 35 nM.

`CCc1cc(C(=O)NCCNC(=O)c2ccncc2)c2nccc(N3CCc4c(cc(Cn5ccnc5)cc4-c4cn(C)nc4C(F)(F)F)C3=O)c2c1` [Example 213, 4-(7-((1H-imidazol-1-yl)methyl)-5-(1-methyl-3-(trifluoromethyl)-1H-pyrazol-4-yl)-1-oxo-3,4-dihydroisoquinolin-2(1H)-yl)-6-ethyl-N-(2-(isonicotinamido)ethyl)quinoline-8-carboxamide]: the inhibition constant (Ki) on WDR5 was < 0.02 nM. Further, in assay [1], the GI50 is < 20 nM.

As to `COc1cnc2cncc(N3CCc4c(cc(Cn5ccnc5)cc4-c4cn(C)nc4C(F)(F)F)C3=O)c2c1` [Example 214, 7-((1H-imidazol-1-yl)methyl)-2-(3-methoxy-1,7-naphthyridin-5-yl)-5-(1-methyl-3-(trifluoromethyl)-1H-pyrazol-4-yl)-3,4-dihydroisoquinolin-1(2H)-one], at WDR5, the Ki was < 0.02 nM. Besides, the GI50 in assay [1] was < 20 nM.

Turning to `CCc1cc(C(=O)NCCNC(=O)c2cscn2)c2nccc(N3CCc4c(cc(Cn5ccnc5)cc4-c4cn(C)nc4C(F)(F)F)C3=O)c2c1` [Example 216, N-(2-(4-(7-((1H-Imidazol-1-yl)methyl)-5-(1-methyl-3-(trifluoromethyl)-1H-pyrazol-4-yl)-1-oxo-3,4-dihydroisoquinolin-2(1H)-yl)-6-ethylquinoline-8-carboxamido)ethyl)thiazole-4-carboxamide], the Ki on WDR5 was < 0.02 nM. The GI50 in assay [1] is < 20 nM.

For the origin of these results see patent publication US12692249B2, “WDR5 inhibitors and modulators” (Vanderbilt University, priority 2019, dated 2026).
